Changes are numbered by the printed parent chain. *1 amine or outer side, *2 acyl side, *3 side chain or, on linkers, in order; H or OH if unused. Where a SMILES comes first, the peptide text is derived from it. Side-chain parts run from the residue outwards. [ ]: non-standard residue; d: D form. The star is where a group is joined. γGlu = O=C(O)[C@H](CCC(=O)[*:2])N[*:1]; Stearoyl = CCCCCCCCCCCCCCCCCC(=O)*; Nle = CCCC[C@H](N)C(=O)O; AEEA = NCCOCCOCC(=O)O; Aib = CC(C)(N)C(=O)O
Key:
Format in all cases: cell-based
rat RXFP1 = biological target: T1, rat RXFP1 (Rattus norvegicus, UniProt Q6R6I6); assay: cAMP HTRF assay in HEK_ratRXFP1 cells
T1 construct: expressed in transfected cells
T1 sequence (Q6R6I6 1-758): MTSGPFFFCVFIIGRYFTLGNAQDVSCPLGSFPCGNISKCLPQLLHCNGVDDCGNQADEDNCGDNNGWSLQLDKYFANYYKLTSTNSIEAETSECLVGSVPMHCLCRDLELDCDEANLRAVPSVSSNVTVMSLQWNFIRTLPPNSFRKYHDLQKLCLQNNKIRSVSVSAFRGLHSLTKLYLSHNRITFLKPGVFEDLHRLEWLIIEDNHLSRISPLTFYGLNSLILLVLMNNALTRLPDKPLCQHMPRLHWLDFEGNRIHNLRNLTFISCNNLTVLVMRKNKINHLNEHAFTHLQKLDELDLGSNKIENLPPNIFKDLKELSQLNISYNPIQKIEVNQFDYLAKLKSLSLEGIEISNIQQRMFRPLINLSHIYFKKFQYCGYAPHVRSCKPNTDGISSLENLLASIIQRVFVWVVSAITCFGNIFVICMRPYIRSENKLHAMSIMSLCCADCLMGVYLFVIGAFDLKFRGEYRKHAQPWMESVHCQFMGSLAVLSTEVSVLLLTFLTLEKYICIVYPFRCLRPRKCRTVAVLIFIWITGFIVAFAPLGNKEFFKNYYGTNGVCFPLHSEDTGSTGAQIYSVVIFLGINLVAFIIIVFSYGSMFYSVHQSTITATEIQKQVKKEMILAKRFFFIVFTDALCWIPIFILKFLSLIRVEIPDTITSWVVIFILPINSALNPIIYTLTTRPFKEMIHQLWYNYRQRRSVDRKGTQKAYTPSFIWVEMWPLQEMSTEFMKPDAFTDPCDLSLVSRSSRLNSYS

hRXFP1 (S69P/F76V) = biological target: T2, hRXFP1 (S69P/F76V) (Homo sapiens, UniProt Q9HBX9, F76V/S69P); assay: cAMP production in HEK cells expressing hRXFP1 (S69P/F76V); conditions: hRXFP1 F76V-S69P dual mutant, n = 4 experiments in duplicate
T2 sequence (Q9HBX9 1-757 S69P/F76V): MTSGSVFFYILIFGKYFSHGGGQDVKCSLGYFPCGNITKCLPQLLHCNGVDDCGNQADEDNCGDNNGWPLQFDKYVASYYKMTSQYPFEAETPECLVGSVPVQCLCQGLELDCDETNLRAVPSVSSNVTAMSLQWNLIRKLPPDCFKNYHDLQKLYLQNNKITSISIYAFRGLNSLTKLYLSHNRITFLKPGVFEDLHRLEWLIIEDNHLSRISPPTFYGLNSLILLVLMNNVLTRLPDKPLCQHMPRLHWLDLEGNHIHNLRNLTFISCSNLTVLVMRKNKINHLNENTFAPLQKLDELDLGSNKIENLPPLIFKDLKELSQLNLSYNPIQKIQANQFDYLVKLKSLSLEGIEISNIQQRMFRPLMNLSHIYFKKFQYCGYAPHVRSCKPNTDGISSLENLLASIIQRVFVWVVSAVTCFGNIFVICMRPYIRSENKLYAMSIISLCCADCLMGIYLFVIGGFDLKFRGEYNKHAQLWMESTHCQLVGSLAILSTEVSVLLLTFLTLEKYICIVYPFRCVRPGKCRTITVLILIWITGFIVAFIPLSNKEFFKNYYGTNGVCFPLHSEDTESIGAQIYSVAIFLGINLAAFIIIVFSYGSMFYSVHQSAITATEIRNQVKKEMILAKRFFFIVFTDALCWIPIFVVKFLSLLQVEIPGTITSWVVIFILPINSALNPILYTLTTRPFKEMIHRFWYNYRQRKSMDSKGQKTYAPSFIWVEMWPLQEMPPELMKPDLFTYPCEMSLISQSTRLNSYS
Method: HEK cells were stably transduced with lentiviral constructs (Vectalys, MOI 20, batches rV2.1A1.5057 B, rV2.1A1.5056 B and rV2.1A1.5059 B) containing a bicistronic vectors encoding hRXFP1 (S69P) or hRXFP1 (F76V) or hRXFP1 (S69P/F76V) under the EF1 promoter followed by an internal ribosome entry site (IRES) elements to express the neomycin antibiotic resistance gene for selection with 500 μg/mL Geneticin (Invitrogen, #10131-019). Three days post transduction, HEK cells were grown in the presence of Genetecin. Positive individual clones were selected and amplified, and cAMP readout (nM) was used as described for other cell types at a cell density of 8000 cells/well.

RXFP1 [1] = biological target: T3, RXFP1 (Homo sapiens, UniProt Q9HBX9); assay: cAMP HTRF assay in EA.hy926_hRXFP1 cells; design: expressed in transfected cells; host or cells: EA.hy926 (ATCC CRL-2922), lentiviral transduction, puromycin selection
T3 sequence (Q9HBX9 1-757): T2 sequence (Q9HBX9 1-757 S69P/F76V) with P69S, V76F
Method: EA.hy926 or EA.hy926_RXFP1 were grown in complete growth medium (DMEM + 10% Fetal Calf serum + 1% Penicillin/Streptomycin + puromycin 0.5 µg/mL) at 37 °C and 5% CO2 in a humidified incubator. When cells reached 80–90% confluency, cells were detached from plastic using Trypsin–EDTA and were plated in 96 or 384-well plates according to the test.
(§1) Cells were plated in low-volume 384-well plates at a density of 4000 cells/well for EA.hy926_RXFP1 cells or 8000 cells/well for OVCAR5 cells in a final volume of 5 µL. The plates were briefly centrifuged at 800 rpm to allow the cell suspension to move to the bottom of the wells and then incubated for 24 h at 37 °C in 5% CO2. 5µL of the diluted compounds were then transferred in 384-well plate containing 5µL of cells in test medium. The assay plates were incubated for 30 min at 37 °C under 5% CO2. After 30 min the reaction was stopped by addition of HTRF revelation reagents with a multidrop dispenser. […]
(§2) After overnight incubation at room temperature, HTRF signal was read at 620 and 665 nm on Phera Star (BMG LAbtech) plate reader. The HTRF signal was calculated as follows: ratio HTRF = [(signal 665 nm)/(signal 620 nm)] × 10^4. […]
(§3) Relative EC50s (EC50rel) were determined with SAS procedure NLIN in SAS system release 9.4 under Unix via Biost@t-SPEED-LTS v2.4 internal software using the 4-parameter logistic model[47]. […]

RXFP1 [2] = biological target: T3, RXFP1; assay: cAMP HTRF assay in OVCAR5 cells (endogenous RXFP1); design: they express significant endogenous levels of RXFP1 (determined by RT-PCR); endogenous in cells; host or cells: OVCAR5 (from NIH, NCI-60 panel)
Method: OVCAR5 cells were grown in complete medium (RPMI 1640 + 10% Fetal Calf serum + 1% Penicillin/Streptomycin) at 37 °C and 5% CO2 in a humidified incubator. OVCAR5 cells were detached with accutase for 5 min and were plated in 384-well plates at a density of 8000 cells/well.
as §1, §2, §3

Molecule | Emax (%) ± SEM cAMP (rat RXFP1; HEK_ratRXFP1 cells, % of 100 nM relaxin response, n = 6) [%] | EC50 (rat RXFP1; HEK_ratRXFP1 cells, geometric mean of relative EC50 with 95% CI, n = 6) [nM] | cAMP response (efficacy) (hRXFP1 (S69P/F76V)) | Emax (%) ± SEM cAMP (RXFP1 [1]; EA.hy926_hRXFP1 cells, % of 100 nM relaxin response, n = 5) [%] | Emax (%) ± SEM cAMP (RXFP1 [2]; OVCAR5 cells, % of 100 nM relaxin response, n = 6) [%] | Emax (rat RXFP1; read-out: Emax (%) ± SEM cAMP) [%] | Emax (RXFP1 [1]; read-out: Emax (%) ± SEM cAMP) [%] | Emax (RXFP1 [2]; OVCAR-5, read-out: Emax (%) ± SEM cAMP) [%]
relaxin | 95.6 ± 0.8 | 1.4 | reduced in all RXFP1 mutants compared to the wild type construct | 100.1 ± 0.7 | 96.2 ± 0.8 | – | – | –
CCCCCCCCCCCCCCCCCC(=O)N[C@@H](CCC(=O)N[C@@H](CCC(=O)N[C@@H](CCC(=O)NCCOCCOCC(=O)NCCOCCOCC(=O)NCCOCCOCC(=O)NCCCC[C@H](NC(=O)[C@H](CCCCNC(C)=O)NC(=O)[C@H](CCCCN)NC(=O)[C@H](CCCNC(=N)N)NC(=O)C(C)(C)NC(=O)[C@H](CO)NC(=O)[C@H](Cc1c[nH]c2ccccc12)NC(=O)[C@@H](NC(=O)[C@H](CO)NC(=O)[C@H](CCCC)NC(=O)CNC(=O)[C@H](CCC(=O)O)NC(=O)C(C)(C)NC(=O)C(C)(C)NC(=O)[C@@H](NC(=O)[C@H](CCCCNC(C)=O)NC(=O)[C@H](C)NC(=O)[C@H](CCCNC(=N)N)NC(=O)[C@@H](NC(=O)[C@H](CCCCN)NC(=O)[C@H](CCC(=O)O)NC(=O)[C@H](CCCNC(=N)N)NC(=O)CNC(=O)[C@H](CCC(=O)O)NC(=O)[C@H](CC(C)C)NC(C)=O)C(C)C)[C@@H](C)CC)[C@@H](C)O)C(N)=O)C(=O)O)C(=O)O)C(=O)O [SA10SC-RLX] (Ac-LEGREKVRAK(Ac)I[Aib][Aib]EG[Nle]STWS[Aib]RKK(Ac)K([AEEA-AEEA-AEEA-γGlu-γGlu-γGlu-Stearoyl])-NH2) | – | – | – | – | – | 68.5 ± 2.8 | 93.7 ± 1.1 | 84.1 ± 1.1
